The test system of data set [1] is MDA-MB-231 cells. The data set can be described thus: Cell apoptosis assay (Annexin V-FITC/PI flow cytometry). To be noted: 48 h. In kind it is cell-based, human. The protocol: MDA-MB-231 cells were plated on 6-well plates (3 × 10^4 cells/well) and incubated with various concentrations of 6g (0.75, 1.5, and 3 µM) and 6l (0.1, 0.2, and 0.4 µM) for 48 h. Then, cells were harvested by trypsinization and centrifugation, followed by staining with annexin-V-FITC in binding buffer for 15 min protected from light. Subsequently, the cells were stained with PI, and the proportion of apoptotic cells was measured by flow cytometer (Facs Canto II, Becton Dickinson, San Jose, CA, USA)[36].
A general note: A flow cytometer gives signals particle by particle.

For data set [2], the system named is MDA-MB-231 cells. The data set can be described thus: Cell-cycle assay (PI flow cytometry). In kind it is cell-based, human. The settings on record: 48 h. How it is done: MDA-MB-231 cells were seeded on 6-well plates (3 × 10^4 cells/well) and incubated with indicated concentrations of 6g (0.75, 1.5, and 3 µM) and 6l (0.1, 0.2, and 0.4 µM) for 48 h in a 5% CO2 incubator. Then, the cells were collected by trypsinization and centrifugation, followed by fixing in 70% pre-cooled ethanol overnight. Finally, the cells were stained with PI/RNase A according to the manual and measured by flow cytometer (Facs Canto II, Becton Dickinson, San Jose, CA’, USA)[35].

In data set [3] the test system is A549 cells. The data set can be described thus: MTT assay, A549. In kind it is cell-based. The settings on record: Homo sapiens, 72 h, mean ± SD (n = 3). How it is done: (§1) The cytotoxicity of target compounds was assessed by MTT assay. Briefly, cells were seeded in 96-well plates at a density of 2500–3000 per well and incubated for 24 h in a CO2 incubator. Then, the cells were treated with candidate compounds at seven different concentrations for 72 h. At the end of treatment, the MTT reagent (5 mg/mL) was added to determine the cell viability. After 4 h of incubation, the resulting medium was removed, and 100 µL of DMSO was added to dissolve the formed formazan. Finally, the absorbance at 550 nm was measured by a microplate reader (Varioskan LUX, […]), with the IC50 values calculated using GraphPad Prism 5 software (GraphPad Software, La Jolla, CA, USA).
(In general: Tetrazolium assays rely on reduction of a dye to a coloured formazan, in cell work by metabolically active cells.)

In data set [4] the test system is A549 cells. The data set can be described thus: MTT assay, A549. In kind it is cell-based. To be noted: Homo sapiens, single concentration of 10 µM (Figure S2), read-out: inhibitory rate, A549.
For data set [5], the system named is intracellular malonyl-CoA levels in MDA-MB-231 cells. The data set can be described thus: Measurement of malonyl-CoA levels (Elisa). In kind it is cell-based, human. The settings on record: maximum test concentration, 48 h. The protocol:
MDA-MB-231 cells were seeded on 6-well plates and treated with various concentrations of 6g and 6l for 48 h. Cells were collected, washed with PBS, and lysed with 1% Triton X-100. The lysates were centrifuged at 4 °C for 15 min. The malonyl-CoA levels were determined using Elisa assay kits (Ruixin Biotech, Beijing, China).

The target in data set [6] is T1, hACC1 (Homo sapiens, UniProt Q13085).
T1 construct: purchased BPS Biosciences 50200
The data set can be described thus: ACC inhibitory assay (ADP-Glo luminescent ADP detection). In kind it is biochemical. To be noted: for inhibition at 0.1 µM: hACC1, 0.1 μM, read-out: IRs (%) 0.1 μM; for IC50: hACC1, mean ± SD; for hACC1 IRs (%): at 5 μM, HTVS candidates (Table 1). The protocol: The hACC1 inhibitory activity of target compounds was evaluated using the ADP-Glo^TM kinase assay according to our previous report. In brief, 4.5 µL of working solution containing recombinant ACC1 (BPS Biosciences, 50200) and 0.5 µL of diluted compound solution were added to a 384-well Optiplate plate (Perkin Elmer, 6007290, PerkinElmer, Waltham, MA, USA), and incubated at room temperature for 15 min. Then, 5 µL of substrate mixture was added to the 384-well plate to start the reaction. After incubating for 60 min at room temperature, 10 µL of ADP-Glo reagents were added to the 384-well plate, and incubated for another 40 min to deplete the remaining ATP. Finally, 20 µL of kinase detection reagents were added to the plate and incubated for 40 min to convert ADP to ATP. The luminescent signal of ATP was determined using an Envision multifunction reader (Perkin Elmer, 2104–0010, PerkinElmer, Waltham, MA, USA). The IC50 values were calculated using GraphPad Prism 5 software (GraphPad Software, La Jolla, CA, USA).
A general note: ADP-Glo first removes unused ATP, then detects ADP through luciferase.

In data set [7] the test system is HepG2 cells. The data set can be described thus: MTT assay, HepG2. In kind it is cell-based. The settings on record: Homo sapiens, 72 h, mean ± SD (n = 3). How it is done: as §1
For data set [8], the system named is MDA-MB-231 cells. The data set can be described thus: MTT assay, MDA-MB-231. In kind it is cell-based. To be noted: Homo sapiens, 72 h, mean ± SD (n = 3). How it is done:
as §1

Data set [9] has as its system MDA-MB-231 cells. The data set can be described thus: MTT assay, MDA-MB-231. In kind it is cell-based. To be noted: Homo sapiens, single concentration of 10 µM (Figure S2), read-out: inhibitory rate, MDA-MB-231.
In data set [10] the test system is HUVEC. The data set can be described thus: Cell viability of non-cancerous HUVEC. In kind it is cell-based, human. To be noted: 10 μM. How it is done: (§2) To investigate the selectivity of the synthesised compounds towards cancer cells, the non-cancerous HUVEC cell line was selected for testing.
as §1

A short description of data set [11]: Cell viability of non-cancerous HUVEC. In kind it is cell-based, human. The settings on record: human, HUVEC cells (non-cancerous). How it is done: as §2, §1
In data set [12] the test system is HepG2 cells. The data set can be described thus: MTT assay, HepG2. In kind it is cell-based. To be noted: Homo sapiens, single concentration of 10 µM (Figure S2), read-out: inhibitory rate, HepG2.
Setting [13] is: mean of two independent experiments (Table 2).

As to `CC(NC(=O)Cc1ccccc1)c1cc(-c2ccc(Oc3ccccc3)cc2)no1` (centres unmarked) [Compound 6l, N-(1-(3-(4-Phenoxyphenyl)isoxazol-5-yl)ethyl)-2-phenylacetamide], the melting point (in general, the temperature of the solid-liquid transition) lay in the range of 164.5 to 165.5 °C. In data set [1] (0.4 μM), the “Q2 (upper right quadrant, late apoptotic cells)” value came out at 17.50% and the “Q3 (bottom right quadrant, early apoptotic cells)” value was 12.20%. Besides, in [2] (0.1 μM), the “cells at G0/G1 phase” value came out at 71.79%, the “cells at G2/M phase” value worked out at 12.01% and the “cells at S phase” value came out at 16.20%. Also, in [2] (0.2 μM), the “cells at G0/G1 phase” value is 76.79%, the “cells at G2/M phase” value is on record as 8.79% and the “cells at S phase” value was 14.42%. Also, in data set [2] (0.4 μM), the “cells at G0/G1 phase” value is recorded as 81.93%, the “cells at G2/M phase” value worked out at 5.32% and the “cells at S phase” value is listed as 12.76%. The IC50 – broadly, the concentration that inhibits the measured activity by half – in data set [3] worked out at 0.22 ± 0.07 µM. Further, the inhibition at 10 µM in data set [4] is greater than 80%. In data set [5], the “reduction of intracellular malonyl-CoA levels compared to the control group” value was roughly 25.85%. Besides, the inhibition at 0.1 µM in data set [6] (setting [13]) is 37.9%. This compound came in with an IC50 in data set [6] of 0.279 ± 0.0131 µM. It took 0.26 ± 0.02 µM to reach half-maximal inhibition in data set [7] (IC50). The compound also had an IC50 in [8] of 0.21 ± 0.01 µM. Further, the inhibition at 10 µM in [9] is greater than 80%. Also, in data set [10], the “IRs towards HUVEC” value is given as “less than 20%”. The viability – broadly, a read-out of living cells in per cent, often relative to untreated cells – at 72 h, 10 µM in data set [11] was 89.5 ± 3.21%. Besides, in data set [12], the inhibition at 10 µM was greater than 80%.
As to `CC(=O)NC(C)c1cc(-c2ccc(Oc3ccc(OCc4ccccc4)cc3)cc2)no1` (centres unmarked) [Compound 6a, N-(1-(3-(4-(4-(Benzyloxy)phenoxy)phenyl)isoxazol-5-yl)ethyl)acetamide], the melting point is 152.5 to 153.5 °C. Also, the IC50 in data set [3] was 1.4 ± 0.22 µM. The inhibition at 10 µM in data set [4] is greater than 80%. Also, the “hACC1 IRs (%)” value in data set [6] came out at 57%. For the same compound, in [6] (listed as D098-1432 (6a)), the “hACC1 IRs (%)” value is recorded as 57.39%. Also, in data set [6] (setting [13]), the inhibition at 0.1 µM came to 18.1%. Also, in [6] (hACC1, 5 μM, mean of two independent experiments (Table 2), read-out: IRs (%) 5 μM), the inhibition at 5 µM came to 54.9%. Also, half-maximal inhibition in data set [7] (IC50) was put at 1.91 ± 0.66 µM. In [8], this compound came in with an IC50 of 1.57 ± 0.09 µM. Further, in [9], the inhibition at 10 µM is greater than 80%. This compound displayed a viability at 72 h, 10 µM in data set [11] of 45.8 ± 1.16%. Besides, the inhibition at 10 µM in data set [12] was greater than 80%.
Compound `CC(=O)NC(C)c1cc(-c2ccc(Oc3ccc(OCC4CC4)cc3)cc2)no1` (centres unmarked) [Compound 6g, N-(1-(3-(4-(4-(Cyclopropylmethoxy)phenoxy)phenyl)isoxazol-5-yl)ethyl)acetamide] returned a melting point of 131.5 to 132.5 °C. The “total percentage of the early and late apoptotic cells” value (from here on “total percentage”) in data set [1] (0.75 μM) worked out at 8.34%. In addition, the “total percentage” value in data set [1] (1.5 μM) turned out to be 13.83%. Besides, the “total percentage” value in [1] (3 μM) was determined as 20.25%. In addition, in [2] (0.75 μM), the “cells at G0/G1 phase” value came out at 69.37%, the “cells at G2/M phase” value is 12.01% and the “cells at S phase” value is 18.62%. In addition, in data set [2] (1.5 μM), the “cells at G0/G1 phase” value turned out to be 73.66%, the “cells at G2/M phase” value amounted to 10.51% and the “cells at S phase” value stood at 15.83%. For the same compound, in data set [2] (3 μM), the “cells at G0/G1 phase” value is given as 79.97%, the “cells at G2/M phase” value is given as 9.96% and the “cells at S phase” value stood at 10.08%. Also, in data set [3], the concentration for half-maximal inhibition (IC50) was found to be 1.1 ± 0.12 µM. Besides, the inhibition at 10 µM in data set [4] was greater than 80%. Moreover, in [5], the “reduction of intracellular malonyl-CoA levels compared to the control group” value is given as roughly 23.59%. In addition, the inhibition at 0.1 µM in data set [6] (setting [13]) came to 51.4%. In data set [6], half-maximal inhibition (IC50) required 0.0998 ± 0.0037 µM. In data set [7], this compound gave an IC50 of 1.73 ± 0.55 µM. In [8], the IC50 is 1.5 ± 0.58 µM. Besides, the inhibition at 10 µM in [9] is greater than 80%. In [10], the “IRs towards HUVEC” value is listed as “less than 20%”. This compound also gave a viability at 72 h, 10 µM in data set [11] of 87.3 ± 6.19%. Moreover, the inhibition at 10 µM in data set [12] was greater than 80%.

For the origin of these results see PMC8205039, “Synthesis and biological evaluation of 4-phenoxy-phenyl isoxazoles as novel acetyl-CoA carboxylase inhibitors” (Journal of Enzyme Inhibition and Medicinal Chemistry, 2021).
